BindingDB's records for doi:10.7270/Q2ZP450S (Catholic University of Daegu, 2017)

Target: T1, Tyrosine-protein phosphatase non-receptor type 1 (Homo sapiens, UniProt P18031)
T1 sequence (P18031 whole entry): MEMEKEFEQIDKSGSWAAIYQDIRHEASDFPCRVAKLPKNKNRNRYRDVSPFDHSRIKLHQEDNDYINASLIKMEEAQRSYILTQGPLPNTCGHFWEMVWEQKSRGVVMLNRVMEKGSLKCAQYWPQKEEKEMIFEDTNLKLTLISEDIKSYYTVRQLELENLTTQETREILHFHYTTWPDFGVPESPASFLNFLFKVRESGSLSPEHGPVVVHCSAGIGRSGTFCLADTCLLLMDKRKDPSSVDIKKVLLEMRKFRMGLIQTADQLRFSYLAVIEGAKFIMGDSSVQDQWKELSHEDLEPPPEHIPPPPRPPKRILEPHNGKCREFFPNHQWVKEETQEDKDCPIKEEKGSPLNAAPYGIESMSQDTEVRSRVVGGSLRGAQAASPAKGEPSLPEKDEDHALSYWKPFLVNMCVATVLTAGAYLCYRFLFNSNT
Experiment: PTP1B Assay
Conditions: pH 6; 37 °C
Method: In each 96-well plates (total 200 μL of volume), there were 2 mM p-NPP and PTP1B (0.05-0.1 μg) in a buffer containing 50 mM citrate (pH 6.0), 0.1 M NaCl, 1 mM EDTA, and 1 mM dithiothreitol (DTT) with or without test compound, following by pre-incubated at 37 °C for 10 min, and then implemented with 50 μL of p-NPP. The reaction was finally added with 10 M NaOH.

Row | IC50 [µM] | Ki [µM] | SMILES
1 | 15.9 | 13.9 | O=C1C=CC(=C(c2ccc(O)cc2)c2c(-c3ccc(O)cc3O)ccc(CO)c2C#Cc2ccc(O)cc2)C=C1 [PTP1B spring 5 (5)]
2 | 4.8 | 3 | COc1ccc(-c2ccc(O)cc2)c(C(c2ccc(O)cc2)c2ccc(O)cc2)c1C#Cc1ccc(O)cc1 [PTP1B spring 7 (7)]
3 | 58 | – | O=C1C=CC(=C(c2ccc(O)cc2)c2c(C#Cc3ccc(O)cc3)cccc2-c2ccc(O)cc2)C=C1 [Selaginellin T (1)]
4 | 13.8 | 9.7 | Cc1ccc(-c2ccc(O)cc2)c(C(=C2C=CC(=O)C=C2)c2ccc(O)cc2)c1C#Cc1ccc(O)cc1 [Selaginellin U (2)]
5 | 14.5 | 11.3 | COc1cc(C#Cc2c(CO)ccc(-c3ccc(O)cc3)c2C(=C2C=CC(=O)C=C2)c2ccc(O)cc2)ccc1O [Selaginellin V (3)]
6 | 14.6 | 11.1 | O=C1C=CC(=C(c2ccc(O)cc2)c2c(C#Cc3ccc(O)cc3)cccc2-c2ccc(O)cc2O)C=C1 [Selaginellin W (4)]
